Common to all, as to assay type: in vivo
Test [1] deals with Brachiaria platyphylla. Kind of test: Greenhouse post-emergence herbicidal activity on BRAPP (broadleaf signalgrass), 20 DAT. From the text: (§1) The test plants were first grown to a height of 3 to 20 cm, depending on the plant habit, and only then treated (post-emergence treatment). Here, the herbicidal combinations were suspended, emulsified or dissolved in water as distribution medium and afterwards applied by spraying, using finely distributing nozzles.
(§2) The herbicides A, B and C were used as commercially available formulations and introduced to the spray liquor with the amount of solvent system used for applying the active compound. In the examples, the solvent used was water.
(§3) The test period extended over 20 days. During this time, the plants were tended, and their response to the treatments with active compounds was evaluated.
(§4) The evaluation for the damage caused by the chemical compositions was carried out using a scale from 0 to 100%, compared to the untreated control plants. Here, 0 means no damage and 100 means complete destruction of the plants.
(§5) The plants used in the greenhouse experiments belonged to the following species:
(§6) The value E, which is to be expected if the activity of the individual compounds is just additive, was calculated using the method of S. R. Colby (1967) “Calculating synergistic and antagonistic responses of herbicide combinations”, Weeds 15, p. 22 ff. For two component mixtures the value E was calculated by the following formula E=X+Y−(X·Y/100)
(§7) where X=effect in percent using a mixture of herbicides A and B at application rates a and b, respectively; • Y=effect in percent using herbicide C at an application rate c; • E=expected effect (in %) of A+B+C at application rates a+b+c.
(§8) If the value observed in this manner is higher than the value E calculated according to Colby, a synergistic effect is present.
(§9) Tables 1 to 41 relate to the herbicidal activities of the binary mixture of herbicides A and B, of herbicide C individually and of their combinations in post-emergence applications assessed 20 days after treatment (20 DAT).

Test [2] has as its system Digitaria sanguinalis. The test is described as follows: Greenhouse post-emergence herbicidal activity on DIGSA (large crabgrass), 20 DAT.
Source text: as §1, §2, §3, §4, §5, §6, §7, §8, §9

Test [3] concerns Abutilon theophrasti. Kind of test: Greenhouse post-emergence herbicidal activity on ABUTH (velvetleaf), 20 DAT. As to conditions: for inhibition at 0.5 g/ha: 0.5 g ai/ha.
Source text: as §1, §2, §3, §4, §5, §6, §7, §8, §9

The test system of test [4] is Avena fatua. Kind of test: Greenhouse post-emergence herbicidal activity on AVEFA (wild oat), 20 DAT.
Source text: as §1, §2, §3, §4, §5, §6, §7, §8, §9

Test [5] has as its system Setaria viridis. The test is described as follows: Greenhouse post-emergence herbicidal activity on SETVI (green foxtail), 20 DAT.
Source text: as §1, §2, §3, §4, §5, §6, §7, §8, §9

The test system of test [6] is Amaranthus retroflexus. The test is described as follows: Greenhouse post-emergence herbicidal activity on AMARE (pig weed), 20 DAT.
Source text: as §1, §2, §3, §4, §5, §6, §7, §8, §9

Test [7] concerns Echinochloa crus-galli. Kind of test: Greenhouse post-emergence herbicidal activity on ECHCG (barnyardgrass), 20 DAT.
Source text: as §1, §2, §3, §4, §5, §6, §7, §8, §9

Test [8] relates to Solarium nigrum. Kind of test: Greenhouse post-emergence herbicidal activity on SOLNI (black nightshade), 20 DAT.
Source text: as §1, §2
The test period extended over 20 days. During this time, the plants were tended, and their response to the treatments with active compounds was evaluated. […]
The value E, which is to be expected if the activity of the individual compounds is just additive, was calculated using the method of S. R. Colby (1967) “Calculating synergistic and antagonistic responses of herbicide combinations”, Weeds 15, p. […] For two component mixtures the value E was calculated by the following formula E=X+Y−(X·Y/100) […]
as §8, §9

In test [9] the test system is Brachiaria decumbens. The test is described as follows: Greenhouse post-emergence herbicidal activity on BRADC (Surinam grass), 20 DAT.
Source text: as §1, §2, §3, §4, §5, §6, §7, §8, §9

Here are results for 15 compounds from patent US10375959B2, “Ternary herbicidal combination comprising saflufenacil” (BASF Agro B.V., priority 2015, dated 2019).

Molecules are shown by their SMILES. Several values for one entry are separate records, joined by “and”; a condition that tells them apart may be missing. Equal entries are not always repeated. Where two headings read alike, the source gives them in different places.

`CCCCC(CC)COC(=O)COc1ccc(Cl)cc1Cl` (stereo not shown) [2,4-D LV ester, 2-ethylhexyl ester of 2,4-D]: the “% activity 20 DAT” value in test [1] (C 6.25 g ai/ha) was found to be 20%; in [2] (DIGSA, C 6.25 g ai/ha), 0%; in [3] (ABUTH, C 6.25 g ai/ha) it was 20%.

Take `CCOCN(C(=O)CCl)c1c(C)cccc1CC` [acetochlor]: the “% activity 20 DAT” value in test [4] (C 50.0 g ai/ha) is listed as 10%; in test [1] (C 50.0 g ai/ha), 5%; in [5] (C 50.0 g ai/ha), 10%; in test [6] (AMARE, C 12.5 g ai/ha), 0%. The pest or weed control at 25 g/ha in test [3] (Abutilon theophrasti, 480 h, ABUTH, C 25.0 g ai/ha) turned out to be 25%.

Consider `CCNc1nc(Cl)nc(NC(C)C)n1` [atrazine], for which the “% activity 20 DAT” value in test [4] (C 12.5 g ai/ha) and in [1] (C 12.5 g ai/ha) was 0% in each case. For the same compound, in [3] (Abutilon theophrasti, 480 h, ABUTH, 12.5 g ai/ha, 20 DAT, read-out: % activity 20 DAT, solo C application), the inhibition at 12.5 g/ha came to 25%. Further, the inhibition at 25 g/ha in test [5] (Setaria viridis, 480 h, 25.0 g ai/ha, 20 DAT, read-out: % activity 20 DAT, solo C application) was 25%.

Regarding `CCSC(C)CC1CC(=O)C(/C(CC)=N/OC/C=C/Cl)=C(O)C1` (stereo not shown) [clethodim], the “% activity 20 DAT” value in test [4] (C 0.75 g ai/ha) is 20%. The inhibition at 0.75 g/ha in test [2] (Digitaria sanguinalis, 480 h, read-out: % activity 20 DAT, solo C application) came out at 0%; in test [3] (Abutilon theophrasti, 480 h, read-out: % activity 20 DAT, solo C application), 5%; in test [6] (Amaranthus retroflexus, 480 h, read-out: % activity 20 DAT, solo C application), 20%. The pest or weed control at 0.75 g/ha in [3] (Abutilon theophrasti, 480 h, read-out: % activity 20 DAT) is 5%.

Turning to `COc1c(Cl)ccc(Cl)c1C(=O)O` [dicamba], the “% activity 20 DAT” value in test [1] (C 17.5 g ai/ha) is 40%. For the same compound, the pest or weed control at 4.375 g/ha in test [3] (Abutilon theophrasti, 480 h, ABUTH, C 4.375 g ai/ha) turned out to be 40%.

Take `CCOc1nc(F)cc2nc(S(=O)(=O)Nc3c(Cl)cccc3Cl)nn12` [diclosulam]: the “% activity 20 DAT, solo C application” value in [1] (1.0 g ai/ha, 20 DAT) came out at 45%; in test [3] (ABUTH, 0.125 g ai/ha, 20 DAT), 10%. The “% activity 20 DAT” value is listed as 20% in test [7] (C 1.0 g ai/ha); 25% in test [2] (DIGSA, C 0.5 g ai/ha); 0% in test [8] (C 0.125 g ai/ha).

Regarding `COC[C@H](C)N(C(=O)CCl)c1c(C)csc1C` [dimethenamid-P], the “% activity 20 DAT” value in test [4] (C 75.0 g ai/ha) was determined as 20%; in test [1] (C 75.0 g ai/ha), 5%; in [6] (AMARE, C 18.75 g ai/ha), 0%. In addition, the “% activity 20 DAT, solo C application” value in [7] (75 g ai/ha, 20 DAT) is on record as 80%; in [3] (ABUTH, 37.5 g ai/ha, 20 DAT) it was 0%; in test [6] (AMARE, 37.5 g ai/ha, 20 DAT) it was 0%.

For the compound `C#CCN1C(=O)COc2cc(F)c(N3C(=O)C4=C(CCCC4)C3=O)cc21` [flumioxazin], in test [5] (C 0.5 g ai/ha), the “% activity 20 DAT” value amounted to 40%.

Turning to `CS(=O)(=O)NC(=O)c1cc(Oc2ccc(C(F)(F)F)cc2Cl)ccc1[N+](=O)[O-]` [fomesafen], the figures for the “% activity 20 DAT” value in test [4] (C 1.5 g ai/ha) and in test [9] (C 3.0 g ai/ha) were 20% and 30%, respectively. The inhibition at […] in test [7] (Echinochloa crus-galli, 480 h, 1.5 g ai/ha, 20 DAT, read-out: % activity 20 DAT, solo C application) came to 20%; in [2] (Digitaria sanguinalis, 480 h, DIGSA, 1.5 g ai/ha, 20 DAT, read-out: % activity 20 DAT, solo C application) it was 20%. The inhibition at 3 g/ha in test [3] (Abutilon theophrasti, 480 h, ABUTH, 3.0 g ai/ha, 20 DAT, read-out: % activity 20 DAT, solo C application) was 20%; in [6] (Amaranthus retroflexus, 480 h, AMARE, 3.0 g ai/ha, 20 DAT, read-out: % activity 20 DAT, solo C application), 65%. For the same compound, in test [3] (Abutilon theophrasti, 480 h, ABUTH, C 1.5 g ai/ha), the pest or weed control at […] stood at 5%.

On to `COCc1cnc(C2=NC(C)(C(C)C)C(=O)N2)c(C(=O)O)c1` (stereo not shown) [imazamox], for which the “% activity 20 DAT” value in [7] (C 0.5 g ai/ha) came to 0%; in test [2] (DIGSA, C 1.0 g ai/ha), 15%; in test [6] (AMARE, C 0.125 g ai/ha) it was 10%. Besides, the inhibition at 0.5 g/ha in [2] (Digitaria sanguinalis, 480 h, DIGSA, 0.5 g ai/ha, 20 DAT, read-out: % activity 20 DAT, solo C application) turned out to be 10%; in [3] (Abutilon theophrasti, 480 h, ABUTH, 20 DAT, Table 38, read-out: % activity 20 DAT, solo C application), 0%; in test [5] (Setaria viridis, 480 h, 0.5 g ai/ha, 20 DAT, read-out: % activity 20 DAT, solo C application), 15%; in test [6] (Amaranthus retroflexus, 480 h, AMARE, 0.5 g ai/ha, 20 DAT, read-out: % activity 20 DAT, solo C application), 40%. Also, the pest or weed control at 0.5 g/ha in test [3] (Abutilon theophrasti, 480 h, ABUTH, C 0.5 g ai/ha) amounted to 0%.

In the case of `CCc1cnc(C2=NC(C)(C(C)C)C(=O)N2)c(C(=O)O)c1` (stereo not shown) [imazethapyr], the “% activity 20 DAT” value in test [4] (C 0.5 g ai/ha) worked out at 0%; in test [2] (DIGSA, C 0.5 g ai/ha), 15%; in test [2] (DIGSA, C 2.0 g ai/ha), 20%; in test [6] (AMARE, C 1.0 g ai/ha), 55%.

Take `CS(=O)(=O)c1cc(C(F)(F)F)ccc1C(=O)c1cnoc1C1CC1` [isoxaflutole]: the “% activity 20 DAT” value in [1] (C 2.0 g ai/ha) came to 40%; in test [2] (DIGSA, C 1.0 g ai/ha) it was 25%; in test [8] (C 0.5 g ai/ha), 70%. In test [3] (Abutilon theophrasti, 480 h, ABUTH, 20 DAT, Table 36, read-out: % activity 20 DAT, solo C application), the inhibition at 0.5 g/ha was 50%. Moreover, the pest or weed control at 1 g/ha in test [3] (Abutilon theophrasti, 480 h, ABUTH, C 1.0 g ai/ha) is 85%.

`CS(=O)(=O)c1ccc(C(=O)C2C(=O)CCCC2=O)c([N+](=O)[O-])c1` [mesotrione]: the “% activity” value in test [1] (20 DAT, C 5.0) is 35%; in [6] (AMARE, 20 DAT, C 0.625), 0%. Moreover, the inhibition at 5 g/ha in [1] (Urochloa platyphylla, 480 h, 5.0 g ai/ha, 20 DAT, read-out: % activity 20 DAT, solo C application) stood at 40%. The “% activity 20 DAT” value in [2] (DIGSA, C 2.5 g ai/ha) turned out to be 80%. The inhibition at 0.625 g/ha in test [3] (Abutilon theophrasti, 480 h, ABUTH, 0.625 g ai/ha, 20 DAT, read-out: % activity 20 DAT, solo C application) came out at 75%.

Consider `CCC(CC)Nc1c([N+](=O)[O-])cc(C)c(C)c1[N+](=O)[O-]` [pendimethalin], for which the “% activity 20 DAT” value in test [4] (C 150.0 g ai/ha), in test [7] (C 75.0 g ai/ha) and in test [7] (C 150.0 g ai/ha) was 0% in each case. Further, the pest or weed control at 37.5 g/ha in [3] (Abutilon theophrasti, 480 h, ABUTH, C 37.5 g ai/ha) was 0%.

For `Cc1c(C(=O)c2cnn(C)c2O)ccc(S(C)(=O)=O)c1C1=NOCC1` [topramezone], the “% activity 20 DAT, solo C application” value is 0% in test [4] (0.25 g ai/ha, 20 DAT); 25% in [7] (0.25 g ai/ha, 20 DAT); 10% in [3] (ABUTH, 0.25 g ai/ha, 20 DAT); 0% in test [5] (0.25 g ai/ha, 20 DAT); 40% in test [6] (AMARE, 0.25 g ai/ha, 20 DAT). Further, the “% activity 20 DAT” value in test [7] (C 0.25 g ai/ha) was 25% and 20%; in [3] (ABUTH, C 0.25 g ai/ha) it was 10% and 0%; in test [9] (C 0.25 g ai/ha) it was 0%; in test [9] (C 0.5 g ai/ha), 0%; in test [5] (C 0.25 g ai/ha), 0%; in [5] (C 0.5 g ai/ha), 0%. Also, in [6] (AMARE, C 0.25 g ai/ha), the “% activity 20 DAT” value was found to be 40%.
